Measured values published in ChEMBL document CHEMBL2311503, “Synthesis and anti-angiogenic activity of benzothiazole, benzimidazole containing phthalimide derivatives” (Bioorg Med Chem Lett, 2013).
The source made the active and inactive calls. No cut-off for these calls is given here.

Species on record: Gallus gallus
Experiment: Antiangiogenic activity in chicken embryo chorioallantoic membrane assessed as inhibition of growth of new vessels proximity at 10 uM after 6 hrs by CAM assay
Assay type: functional, tissue-based

Structure (SMILES) | inhibition
O=C1c2ccccc2C(=O)N1c1ccc2ncsc2c1 | Active
O=C1c2ccccc2C(=O)N1c1nc2ccccc2s1 | Active
O=C1c2ccccc2C(=O)N1c1cccc2nsnc12 | Active
O=C1c2ccccc2C(=O)N1c1nc2ccccc2[nH]1 | Active
Cc1ccc2c(c1)C(=O)N(c1nc3ccccc3s1)C2=O | Active
